Patent US12060350B2, “Therapeutic compounds and methods of use thereof” (REGENTS OF THE UNIVERSITY OF MINNESOTA, priority 2018, dated 2024)

System: human whole blood
Assay: IFN-α/β, IFN-γ, and TNF-α/IL-1β whole blood reporter gene assays (cytokine release)
Assay type: cell-based
Conditions: FIG. 4
Description: IFN-α/β, IFN-γ, and TNF-α/IL-1β Whole Blood Reporter Gene Assays. Whole heparinized blood is collected from consenting individuals, as approved by the University of Minnesota Institutional Review Board, and is diluted 1:2 in RPMI supplemented with 10% fetal bovine serum (FBS). Forty microliters is added to 384-well, flat-bottomed, cell culture-treated microtiter plates containing serial dilutions of compounds. Following incubation at 37° C. for 24 h, […] of supernatant is transferred to separate 384-well plates using a liquid handler equipped with liquid level sensing in order to avoid disturbing the erythrocyte-rich pellet. Forty microliters of HEK-IFNα/β, HEK-IFNγ, or HEK-TNFα/IL-β cytokine reporter cells (InvivoGen, San Diego, CA) harvested at a density of 1×10^6 cells/mL in DMEM with 10% FBS is added to the supernatant plates and incubated at 37° C. for 24 h. […] Sigmoidal dose-response profiles for each cytokine are observed (Beesu M. et al. J. Med. Chem. 2017, 2084), from which threshold cytokine concentrations corresponding to maximal responses for each cytokine reporter cell line are recorded. […]

With `CCCCc1nc2c(N)nc3ccccc3c2n1Cc1cc(C)c(O)c(CN)c1` [Compound 29, 4-((4-Amino-2-butyl-1H-imidazo[4,5-c]quinolin-1-yl)methyl)-2-(aminomethyl)-6-methylphenol] the “cytokine release in human whole blood” value was “can induce cytokine release strongly”.
